# Assay results published in ChEMBL document CHEMBL3808371, “Design, synthesis and biological evaluation of diaziridinyl quinone isoxazole hybrids” (Eur J Med Chem, 2016).
# Legend:
# [1] = system: Candida parapsilosis; test: Fungicidal activity against Candida parapsilosis MTCC 1744 after 24 hrs by serial dilution method; assay type: functional; settings: Lodderomyces parapsilosis, MTCC 1744, 24 h
# [2] = system: Staphylococcus aureus; test: Antibiofilm activity against Staphylococcus aureus MTCC 96 after 24 hrs by crystal violet staining based assay; assay type: functional, organism-based; settings: MTCC 96, 24 h
# [3] = system: Candida albicans; test: Fungicidal activity against Candida albicans MTCC 7315 after 24 hrs by serial dilution method; assay type: functional; settings: MTCC 7315, 24 h
# [4] = Cytotoxicity against human PC3 cells after 72 hrs by XTT assay; assay type: functional, cell-based; settings: PC-3, 72 h
# [5] = system: Candida albicans; test: Fungicidal activity against Candida albicans MTCC 3017 after 24 hrs by serial dilution method; assay type: functional; settings: MTCC 3017, 24 h
# [6] = system: Staphylococcus aureus; test: Antibiofilm activity against Staphylococcus aureus MLS16 MTCC 2940 after 24 hrs by crystal violet staining based assay; assay type: functional, organism-based; settings: MLS16 MTCC 2940, 24 h
# [7] = system: Pichia sporocuriosa; test: Antimicrobial activity against Issatchenkia hanoiensis MTCC 4755 after 24 hrs by well diffusion method; assay type: functional; settings: MTCC 4755, 24 h
# [8] = system: Bacillus subtilis; test: Bactericidal activity against Bacillus subtilis MTCC 121 after 24 hrs by serial dilution method; assay type: functional; settings: MTCC 121, 24 h
# [9] = system: [Candida] aaseri; test: Antimicrobial activity against Candida aaseri MTCC 1962 after 24 hrs by well diffusion method; assay type: functional; settings: Yamadazyma aaseri, MTCC 1962, 24 h
# [10] = system: Pichia sporocuriosa; test: Fungicidal activity against Issatchenkia hanoiensis MTCC 4755 after 24 hrs by serial dilution method; assay type: functional; settings: MTCC 4755, 24 h
# [11] = system: Micrococcus luteus; test: Bactericidal activity against Micrococcus luteus MTCC 2470 after 24 hrs by serial dilution method; assay type: functional; settings: MTCC 2470, 24 h
# [12] = system: Raoultella planticola; test: Antimicrobial activity against Klebsiella planticola MTCC 530 after 24 hrs by well diffusion method; assay type: functional; settings: MTCC 530, 24 h
# [13] = system: Nakaseomyces glabratus; test: Antimicrobial activity against Candida glabrata MTCC 3019 after 24 hrs by well diffusion method; assay type: functional; settings: MTCC 3019, 24 h
# [14] = system: [Candida] aaseri; test: Fungicidal activity against Candida aaseri MTCC 1962 after 24 hrs by serial dilution method; assay type: functional; settings: Yamadazyma aaseri, MTCC 1962, 24 h
# [15] = system: Raoultella planticola; test: Bactericidal activity against Klebsiella planticola MTCC 530 after 24 hrs by serial dilution method; assay type: functional; settings: MTCC 530, 24 h
# [16] = system: Staphylococcus aureus; test: Bactericidal activity against Staphylococcus aureus MTCC 96 after 24 hrs by serial dilution method; assay type: functional; settings: MTCC 96, 24 h
# [17] = system: Pichia kudriavzevii; test: Fungicidal activity against Candida krusei MTCC 3020 after 24 hrs by serial dilution method; assay type: functional; settings: MTCC 3020, 24 h
# [18] = system: Candida albicans; test: Fungicidal activity against Candida albicans MTCC 3018 after 24 hrs by serial dilution method; assay type: functional; settings: MTCC 3018, 24 h
# [19] = system: Candida albicans; test: Antimicrobial activity against Candida albicans MTCC 1637 after 24 hrs by well diffusion method; assay type: functional; settings: MTCC 1637, 24 h
# [20] = system: Micrococcus luteus; test: Antimicrobial activity against Micrococcus luteus MTCC 2470 after 24 hrs by well diffusion method; assay type: functional; settings: MTCC 2470, 24 h
# [21] = system: Micrococcus luteus; test: Antibiofilm activity against Micrococcus luteus MTCC 2470 after 24 hrs by crystal violet staining based assay; assay type: functional, organism-based; settings: MTCC 2470, 24 h
# [22] = system: Candida albicans; test: Antimicrobial activity against Candida albicans MTCC 3958 after 24 hrs by well diffusion method; assay type: functional; settings: MTCC 3958, 24 h
# [23] = system: Candida albicans; test: Fungicidal activity against Candida albicans MTCC 183 after 24 hrs by serial dilution method; assay type: functional; settings: MTCC 183, 24 h
# [24] = system: Candida albicans; test: Fungicidal activity against Candida albicans MTCC 3958 after 24 hrs by serial dilution method; assay type: functional; settings: MTCC 3958, 24 h
# [25] = system: Bacillus subtilis; test: Antibiofilm activity against Bacillus subtilis MTCC 121 after 24 hrs by crystal violet staining based assay; assay type: functional, organism-based; settings: MTCC 121, 24 h
# [26] = system: Staphylococcus aureus; test: Antimicrobial activity against Staphylococcus aureus MLS16 MTCC 2940 after 24 hrs by well diffusion method; assay type: functional; settings: MLS16 MTCC 2940, 24 h
# [27] = system: Pseudomonas aeruginosa; test: Antimicrobial activity against Pseudomonas aeruginosa MTCC 2453 after 24 hrs by well diffusion method; assay type: functional; settings: MTCC 2453, 24 h
# [28] = system: Nakaseomyces glabratus; test: Fungicidal activity against Candida glabrata MTCC 3019 after 24 hrs by serial dilution method; assay type: functional; settings: MTCC 3019, 24 h
# [29] = system: Escherichia coli; test: Antimicrobial activity against Escherichia coli MTCC 739 after 24 hrs by well diffusion method; assay type: functional; settings: MTCC 739, 24 h
# [30] = system: Candida albicans; test: Antimicrobial activity against Candida albicans MTCC 854 after 24 hrs by well diffusion method; assay type: functional; settings: MTCC 854, 24 h
# [31] = system: Candida albicans; test: Fungicidal activity against Candida albicans MTCC 854 after 24 hrs by serial dilution method; assay type: functional; settings: MTCC 854, 24 h
# [32] = system: Pichia kudriavzevii; test: Antimicrobial activity against Candida krusei MTCC 3020 after 24 hrs by well diffusion method; assay type: functional; settings: MTCC 3020, 24 h
# [33] = system: Candida albicans; test: Antimicrobial activity against Candida albicans MTCC 7315 after 24 hrs by well diffusion method; assay type: functional; settings: MTCC 7315, 24 h
# [34] = system: A549; test: Cytotoxicity against human A549 cells after 72 hrs by XTT assay; assay type: functional, cell-based; settings: A549, 72 h
# [35] = system: Candida albicans; test: Antimicrobial activity against Candida albicans MTCC 4748 after 24 hrs by well diffusion method; assay type: functional; settings: MTCC 4748, 24 h
# [36] = system: Candida albicans; test: Fungicidal activity against Candida albicans MTCC 1637 after 24 hrs by serial dilution method; assay type: functional; settings: MTCC 1637, 24 h
# [37] = system: Raoultella planticola; test: Antibiofilm activity against Klebsiella planticola MTCC 530 after 24 hrs by crystal violet staining based assay; assay type: functional, organism-based; settings: MTCC 530, 24 h
# [38] = system: Candida albicans; test: Antimicrobial activity against Candida albicans MTCC 227 after 24 hrs by well diffusion method; assay type: functional; settings: MTCC 227, 24 h
# [39] = system: Candida albicans; test: Antimicrobial activity against Candida albicans MTCC 3017 after 24 hrs by well diffusion method; assay type: functional; settings: MTCC 3017, 24 h
# [40] = system: Candida albicans; test: Antimicrobial activity against Candida albicans MTCC 3018 after 24 hrs by well diffusion method; assay type: functional; settings: MTCC 3018, 24 h
# [41] = system: Candida albicans; test: Antimicrobial activity against Candida albicans MTCC 183 after 24 hrs by well diffusion method; assay type: functional; settings: MTCC 183, 24 h
# [42] = system: Staphylococcus aureus; test: Bactericidal activity against Staphylococcus aureus MLS16 MTCC 2940 after 24 hrs by serial dilution method; assay type: functional; settings: MLS16 MTCC 2940, 24 h
# [43] = system: Candida albicans; test: Fungicidal activity against Candida albicans MTCC 227 after 24 hrs by serial dilution method; assay type: functional; settings: MTCC 227, 24 h
# [44] = system: Candida albicans; test: Fungicidal activity against Candida albicans MTCC 4748 after 24 hrs by serial dilution method; assay type: functional; settings: MTCC 4748, 24 h
# [45] = system: Bacillus subtilis; test: Antimicrobial activity against Bacillus subtilis MTCC 121 after 24 hrs by well diffusion method; assay type: functional; settings: MTCC 121, 24 h
# [46] = system: Candida parapsilosis; test: Antimicrobial activity against Candida parapsilosis MTCC 1744 after 24 hrs by well diffusion method; assay type: functional; settings: Lodderomyces parapsilosis, MTCC 1744, 24 h
# [47] = system: Staphylococcus aureus; test: Antimicrobial activity against Staphylococcus aureus MTCC 96 after 24 hrs by well diffusion method; assay type: functional; settings: MTCC 96, 24 h
# [48] = system: A549; test: Cytotoxicity against human A549 cells; assay type: functional, cell-based
# [49] = Cytotoxicity against human PC3 cells; assay type: functional, cell-based; settings: PC-3
smiles,measurement,setting,value
CCCN(C)C(=O)c1ccc(-c2cc(C3=C(N4CC4)C(=O)C=C(N4CC4)C3=O)no2)s1,MFC,[1],31.2 µg/mL
same,IC50,[2],4600 nM
same,MFC,[3],31.2 µg/mL
same,IC50,[4],600 nM
same,MFC,[5],31.2 µg/mL
same,IC50,[6],10.6 µM
same,MIC,[7],15.6 µg/mL
same,MBC,[8],7.8 µg/mL
same,MIC,[9],7.8 µg/mL
same,MFC,[10],62.5 µg/mL
same,MBC,[11],31.2 µg/mL
same,MIC,[12],7.8 µg/mL
same,MIC,[13],15.6 µg/mL
same,MFC,[14],15.6 µg/mL
same,MBC,[15],15.6 µg/mL
same,MBC,[16],15.6 µg/mL
same,MFC,[17],31.2 µg/mL
same,MFC,[18],125 µg/mL
same,MIC,[19],62.5 µg/mL
same,MIC,[20],15.6 µg/mL
same,IC50,[21],8.9 µM
same,MIC,[22],62.5 µg/mL
same,MFC,[23],62.5 µg/mL
same,MFC,[24],125 µg/mL
same,IC50,[25],2200 nM
same,MIC,[26],15.6 µg/mL
same,MIC,[27],> 125 µg/mL
same,MFC,[28],31.2 µg/mL
same,MIC,[29],> 125 µg/mL
same,MIC,[30],62.5 µg/mL
same,MFC,[31],125 µg/mL
same,MIC,[32],15.6 µg/mL
same,MIC,[33],15.6 µg/mL
same,IC50,[34],2700 nM
same,MIC,[35],31.2 µg/mL
same,MFC,[36],125 µg/mL
same,IC50,[37],3500 nM
same,MIC,[38],62.5 µg/mL
same,MIC,[39],7.8 µg/mL
same,MIC,[40],31.2 µg/mL
same,MIC,[41],31.2 µg/mL
same,MBC,[42],31.2 µg/mL
same,MFC,[43],125 µg/mL
same,MFC,[44],62.5 µg/mL
same,MIC,[45],3.9 µg/mL
same,MIC,[46],15.6 µg/mL
same,MIC,[47],7.8 µg/mL
CO[C@@]12[C@H](COC(N)=O)C3=C(C(=O)C(C)=C(N)C3=O)N1C[C@@H]1N[C@@H]12 [MITOMYCIN],IC50,[2],1100 nM
same,IC50,[6],0.9 µM
same,MBC,[8],0.9 µg/mL
same,MBC,[11],1.9 µg/mL
same,MIC,[12],1.9 µg/mL
same,MBC,[15],3.9 µg/mL
same,MBC,[16],3.9 µg/mL
same,MIC,[20],0.9 µg/mL
same,IC50,[21],0.9 µM
same,IC50,[25],300 nM
same,MIC,[26],1.9 µg/mL
same,MIC,[27],1.9 µg/mL
same,MIC,[29],3.9 µg/mL
same,IC50,[48],500 nM
same,IC50,[37],1100 nM
same,MIC,[39],> 500 µg/mL
same,MBC,[42],1.9 µg/mL
same,IC50,[49],500 nM
same,MIC,[45],0.45 µg/mL
same,MIC,[47],1.9 µg/mL
